Results published in PMC8019892, “Para-Aminobenzohydrazide Derivatives as Fatty Acid Amide Hydrolase Inhibitors: Design, Synthesis and Biological Evaluation” (Iranian Journal of Pharmaceutical Research : IJPR, 2020).
Where two headings read alike, the source gives them in different places.

Legend:
[1] = molecular target: T1, fatty acid amide hydrolase (FAAH) (Homo sapiens, UniProt O00519); experiment: Cayman plate-based fluorometric FAAH assay kit; format: biochemical
T1 construct: purchased Cayman 10005196
T1 sequence (O00519 1-579): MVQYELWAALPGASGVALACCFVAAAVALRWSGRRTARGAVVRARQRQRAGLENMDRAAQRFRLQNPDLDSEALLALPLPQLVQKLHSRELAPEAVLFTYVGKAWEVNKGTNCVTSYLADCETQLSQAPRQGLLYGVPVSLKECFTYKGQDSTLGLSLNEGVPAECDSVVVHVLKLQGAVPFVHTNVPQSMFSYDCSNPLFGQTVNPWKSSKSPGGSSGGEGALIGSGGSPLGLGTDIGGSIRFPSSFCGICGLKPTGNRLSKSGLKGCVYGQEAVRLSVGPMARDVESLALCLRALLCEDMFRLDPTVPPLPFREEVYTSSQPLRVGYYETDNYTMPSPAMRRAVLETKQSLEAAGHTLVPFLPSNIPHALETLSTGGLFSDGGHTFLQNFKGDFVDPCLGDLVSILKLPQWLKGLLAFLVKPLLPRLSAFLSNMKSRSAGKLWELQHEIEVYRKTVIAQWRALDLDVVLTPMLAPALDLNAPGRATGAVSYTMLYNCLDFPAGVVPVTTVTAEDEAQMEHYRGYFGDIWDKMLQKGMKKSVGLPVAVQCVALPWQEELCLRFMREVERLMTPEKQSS
Experimental: The inhibitory activity of the final products was evaluated against fatty acid amide hydrolase with Cayman plate-based fluorometric FAAH assay kit (item number 10005196) using an excitation wavelength of 340 nm and an emission wavelength of 450 nm. The enzyme was incubated with inhibitors for 5 min in […] Tris/HCl buffer (pH 9.0) at 37 °C. AMC-arachidonoyl amide and JZL-195 were used as substrate and positive control respectively. All test samples were dissolved in DMSO.
The IC50 of the compounds with inhibitory activity above 70% and JZL-195, reference compound, were investigated at concentrations of 0.1, 5, 10, 20, 50 and 100 nM. The results are summarized in Table 1 Evaluation of the 5a, 5b and 7 derivatives have well illustrated the effect of phenyl group on inhibitory activity, which is probably directly related to lipophilicity and π-π interactions in lipophilic envelope.

[2] = molecular target: FAAH; design: method as in PMID 28535469, PMID 21764305, PMID 10805767; conditions: 8 and 9, cited from earlier work
[3] = 100 nM compound, 5 min incubation, Tris/HCl pH 9.0, 37 °C, substrate AMC-arachidonoyl amide, read-out: %inhibition at 100nM
[4] = concentrations 0.1, 5, 10, 20, 50 and 100 nM, fluorometric FAAH assay, read-out: IC50

SMILES	melting point	inhibition at 0.1 µM [1, 3] [%]	other results
NC(=O)NNC(=O)c1ccc(NC(N)=O)cc1 [Compound 7, 2-(4-ureidobenzoyl) hydrazine-1-carboxamide]	226 to 228 °C (dec.)	27.3	
O=C(NN1C(=O)c2ccccc2C1=O)c1ccc(N2C(=O)c3ccccc3C2=O)cc1 [Compound 8, N, 4-bis (1,3-dioxoisoindolin-2-yl) benzamide]	316 to 318 °C	31.3	
O=C(NN1C(=O)CCC1=O)c1ccc(N2C(=O)CCC2=O)cc1 [Compound 9, N, 4-bis (2,5-dioxopyrrolidin-1-yl) benzamide]	273 to 275 °C	45.1	
O=C(NNC(=O)c1ccc([N+](=O)[O-])cc1)c1ccc(NC(=O)c2ccc([N+](=O)[O-])cc2)cc1 [Compound 10f, 4-nitro-N-(4-(2-(4-nitrobenzoyl) hydrazine-1-carbonyl)phenyl) benzamide]	287 to 289 °C	50.5	
O=C(O)CCC(=O)NNC(=O)c1ccc(NC(=O)CCC(=O)O)cc1 [Compound 11, 4-(2-(4-(3-carboxypropanamido)benzoyl) hydrazineyl)-4-oxobutanoic acid]	185 to 187 °C	51.2	
O=C(NNC(=O)c1ccccc1C(=O)O)c1ccc(NC(=O)c2ccccc2C(=O)O)cc1 [Compound 12, 2-(2-(4-(2-carboxybenzamido)benzoyl) hydrazine-1-carbonyl) benzoic acid]	186 °C	80	IC50 [1, 4]: 1.62 nM
O=C(NNS(=O)(=O)c1ccccc1)c1ccc(NS(=O)(=O)c2ccccc2)cc1 [Compound 13, N-(4-(2-(phenylsulfonyl) hydrazine-1-carbonyl)phenyl) benzenesulfonamide]	239 to 241 °C	31.4	
O=C(Oc1ccc([N+](=O)[O-])cc1)N1CCN(Cc2cccc(Oc3ccccc3)c2)CC1 [JZL-195, reference compound]			IC50 [1]: 1.31 nM; inhibition at 0.1 µM ([1]; pH 9, read-out: %inhibition at 100nM): 81%
O=C(CCCCCCc1ccccc1)c1nnc(-c2ccccn2)o1 [OL-135 analogue]			Ki ([2]; known FAAH inhibitor, Figure 1): 0.29 nM
Cc1cccnc1NC(=O)CNC(=O)C(C)c1ccc(Nc2ccnc(C(F)(F)F)c2)cc1 (centres unmarked) [TPA-17]			IC50 ([2]; known FAAH inhibitor, Figure 1): 2400 nM; FAAH inhibitory activity ([2]; previously reported, in words): mild FAAH inhibitory activity

Second part, led by results:

melting point	inhibition at 0.1 µM [1, 3] [%]	SMILES	other results
283 to 285 °C	58.5	NC(=O)NNC(=O)c1ccc(NC(=O)c2ccccc2)cc1 [Compound 5a, 2-(4-benzamidobenzoyl) hydrazine-1-carboxamide]	
325 to 327 °C	63.4	NC(=O)NNC(=O)c1ccc(NC(=O)c2ccc(Cl)cc2)cc1 [Compound 5b, 2-(4-(4-chlorobenzamido)benzoyl) hydrazine-1-carboxamide]	
265 to 267 °C	81.1	O=C(NNC(=O)c1ccc(NC(=O)c2ccccc2)cc1)c1ccccc1 [Compound 10a, N-(4-(2-benzoylhydrazine-1-carbonyl)phenyl) benzamide]	IC50 [1, 4]: 20.2 nM
273 to 275 °C	77.4	O=C(NNC(=O)c1cccc(Cl)c1)c1ccc(NC(=O)c2cccc(Cl)c2)cc1 [Compound 10b, 3-chloro-N-(4-(2-(3-chlorobenzoyl) hydrazine-1-carbonyl)phenyl) benzamide]	IC50 [1, 4]: 13.3 nM
315 to 318 °C	77.3	O=C(NNC(=O)c1ccc(NC(=O)c2ccc(Cl)cc2)cc1)c1ccc(Cl)cc1 [Compound 10c, 4-chloro-N-(4-(2-(4-chlorobenzoyl) hydrazine-1-carbonyl)phenyl) benzamide]	IC50 [1, 4]: 12.3 nM
264 to 266 °C	77.3	COc1ccc(C(=O)NNC(=O)c2ccc(NC(=O)c3ccc(OC)cc3)cc2)cc1 [Compound 10d, 4-methoxy-N-(4-(2-(4-methoxybenzoyl) hydrazine-1-carbonyl)phenyl) benzamide]	IC50 [1, 4]: 5.1 nM
322 to 325 °C	38.9	O=C(NNC(=O)c1ccc(NC(=O)c2ccc(F)cc2)cc1)c1ccc(F)cc1 [Compound 10e, 4-fluoro-N-(4-(2-(4-fluorobenzoyl) hydrazine-1-carbonyl)phenyl) benzamide]	
